Experimental data as given in patent US9216977B2 (The University of North Carolina at Chapel Hill, priority 2009, dated 2015).
Where two headings read alike, the source gives them in different places.

How the values were obtained:
Assay type in all cases: cell-based
KB = assay: in vitro screen against human tumor cell line KB (nasopharyngeal), GI50; details: for GI50: read-out: GI50 KB
DU145 = assay: in vitro screen against human tumor cell line DU-145 (prostate), GI50; details: read-out: GI50 DU145
KBvin = assay: in vitro screen against KBvin cell line, GI50
A549 = assay: in vitro screen against human tumor cell line A549 (lung), GI50
HCT-8 = assay: in vitro screen against human tumor cell line HCT-8 (colon), GI50; details: read-out: GI50 HCT-8
[1] = Homo sapiens, KB, Example 3, Table 1
[2] = Homo sapiens, DU-145, Example 3, Table 1
[3] = Homo sapiens, KBVIN, Example 3, Table 1
[4] = Homo sapiens, A549, Example 3, Table 1, read-out: GI50 A549
[5] = Example 2, Table 2, 12-aza-antofines
[6] = Example 2, Table 2, 12-aza-antofines, read-out: GI50 A549

| Compound | GI50 (KB; [1]) | GI50 (DU145; [2]) | GI50 (KBvin; [3]) | GI50 (A549; [4]) | GI50 (KB) | GI50 (DU145) | GI50 (A549; read-out: GI50 A549) | other results |
| --- | --- | --- | --- | --- | --- | --- | --- | --- |
| COc1ccc2c3c(c4cc(OC)c(OC)cc4c2c1)C[C@H]1C[C@@H](OC)CCN1C3 [Compound 26a, (13S,14aS)-13-methoxy-cryptopleurine] | 5240 nM | 3570 nM | 3690 nM | 7110 nM |  |  |  |  |
| COc1ccc2c3c(c4cc(OC)c(OC)cc4c2c1)C[C@H]1CNCCN1C3.Cl.Cl [Compound 8a, (S)-13-aza-cryptopleurine dihydrochloride] |  |  |  |  | 1790 nM | 2080 nM | 1730 nM | GI50 (HCT-8): 1620 nM |
| (14R,14aS)-11-oxo-14-hydroxyl-cryptopleurine [Compound 21b] |  |  |  |  | 300 nM | 200 nM | 69 nM | GI50 (KBvin): 120 nM |
| COc1ccc2c3c(c4cc(OC)c(OC)cc4c2c1)C[C@H]1CCCN1C3 [R-antofine, reference compound] | 36 nM |  | 25 nM |  |  |  |  | KB GI50 (KB; Example 1, Table 1): 36 nM; GI50 (A549; Homo sapiens, A549, Example 1, Table 1, read-out: A549 GI50): 22 nM |
| COc1ccc2c3c(c4cc(OC)c(OC)cc4c2c1)C[C@H]1C[C@H](O)[C@@H](O)CN1C3 [Compound 24a, (12S,13S,14aS)-12,13-dihydroxyl-cryptopleurine] | 840 nM | 600 nM | 2170 nM | 550 nM |  |  |  |  |
| (14S,14aS)-11-oxo-14-hydroxyl-cryptopleurine [Compound 21a] |  |  |  |  | 25 nM | 33 nM | 10 nM | GI50 (KBvin): 25 nM |
| COc1ccc2c3c(c4cc(OC)c(OC)cc4c2c1)C[C@H]1CN(C)CN1C3 [Compound 3i, (S)-12-aza-12N-dimethylamino-antofine] |  |  |  |  |  |  |  | GI50 (KB; [5]): 2310 nM; GI50 (DU145; [5]): 2260 nM; GI50 (HCT-8; [5]): 2010 nM; GI50 (A549; [6]): 1670 nM |
| COc1ccc2c3c(c4cc(OC)c(OC)cc4c2c1)C[C@H]1[C@H](O)CCN1C3 [Compound 3b] | 500 nM | 850 nM | 640 nM | 270 nM |  |  |  |  |
| COc1ccc2c(c1)c1c(c3cc(OC)c(OC)cc32)C[C@H]2CCN(C3CC3)CN2C1 [Compound 11e, (S)-12-aza-12N-cyclopropyl-cryptopleurine] |  |  |  |  | 11470 nM | 14300 nM | 4300 nM | GI50 (HCT-8): 5730 nM |
| COc1ccc2c3c(c4cc(OC)c(OC)cc4c2c1)C[C@H]1CN(S(C)(=O)=O)CCN1C3 [Compound 8e, (S)-13-aza-13N-methylsulfonyl-cryptopleurine] |  |  |  |  | 17520 nM | 17000 nM | 14500 nM | GI50 (HCT-8): 17800 nM |
| COc1ccc2c3c(c4cc(OC)c(OC)cc4c2c1)C[C@H]1C[C@H](OC)CCN1C3 [Compound 26b, (13R,14aS)-13-methoxy-cryptopleurine] | 100 nM | 56 nM | 66 nM | 25 nM |  |  |  |  |
| CC[C@@]1(O)CCN2Cc3c(c4cc(OC)c(OC)cc4c4cc(OC)ccc34)C[C@H]2C1 [Compound 25, (13R,14aS)-13-ethyl-13-hydroxyl-cryptopleurine] | 920 nM | 770 nM | 870 nM | 990 nM |  |  |  |  |
| (S)-12-aza-12N-phenyl-cryptopleurine [Compound 11b] |  |  |  |  | >40000 nM | > 40000 nM | > 40000 nM | GI50 (HCT-8): 28400 nM |
| COc1ccc2c3c(c4cc(OC)c(OC)cc4c2c1)CC1CN(C)CN1C3 (stereo in doubt) [Compound 3k, (R)-12-aza-12N-dimethylamino-antofine] |  |  |  |  |  |  |  | GI50 (KB; [5]): 2380 nM; GI50 (DU145; [5]): 6010 nM; GI50 (KBvin; Homo sapiens, Table 2, cells marked (KBvin) in the HCT-8 column): 11000 nM; GI50 (A549; [6]): 4150 nM |
| COc1ccc2c3c(c4cc(OC)c(OC)cc4c2c1)C[C@H]1[C@@H](O)CCN1C3 [Compound 3a] | 1830 nM | 3200 nM | 3420 nM | 2810 nM |  |  |  |  |
| COc1ccc2c3c(c4cc(OC)c(OC)cc4c2c1)C[C@H]1CCN(C)CN1C3 [Compound 11f, (S)-12-aza-12N-dimethylamino-cryptopleurine] |  |  |  |  |  |  |  | GI50 (KB; Homo sapiens, KB, Example 2, Table 4, 12-aza-cryptopleurines): 3080 nM; GI50 (DU145; Homo sapiens, DU-145, Example 2, Table 4, 12-aza-cryptopleurines): 2970 nM; GI50 (HCT-8; Homo sapiens, HCT-8, Example 2, Table 4, 12-aza-cryptopleurines): 2370 nM; GI50 (A549; Homo sapiens, A549, Example 2, Table 4, 12-aza-cryptopleurines, read-out: GI50 A549): 1780 nM |
